Test results taken from publication PMC4685510, “A Cell Biologist’s Field Guide to Aurora Kinase Inhibitors” (Frontiers in Oncology, 2015).

Columns and labels:
Experiment in all cases: biochemical
Type in all cases: biochemical
[1] = target: 363 human kinases (including Aurora A/B/C) (Homo sapiens, UniProt Q9UEW8); conditions: STK39/STLK3; for remaining activity at 0.1 µM: 100 nM; for remaining activity at 0.1 µM / remaining activity at 0.5 µM: read-out: % Enzyme Activity (relative to DMSO controls)
From the text: (§1) However, the Aurora A/B selectivity ratios derived from our in vitro and in vivo data can be compared to prioritize inhibitors.

[2] = target: 363 human kinases (including Aurora A/B/C) (Homo sapiens, UniProt P00533); conditions: EGFR, [ATP] 1 µM; for remaining activity at 0.1 µM: 100 nM; for remaining activity at 0.1 µM / remaining activity at 0.5 µM: read-out: % Enzyme Activity (relative to DMSO controls)
Sequence of 363 human kinases (including Aurora A/B/C) (Homo sapiens, UniProt P00533) (P00533 25-1210): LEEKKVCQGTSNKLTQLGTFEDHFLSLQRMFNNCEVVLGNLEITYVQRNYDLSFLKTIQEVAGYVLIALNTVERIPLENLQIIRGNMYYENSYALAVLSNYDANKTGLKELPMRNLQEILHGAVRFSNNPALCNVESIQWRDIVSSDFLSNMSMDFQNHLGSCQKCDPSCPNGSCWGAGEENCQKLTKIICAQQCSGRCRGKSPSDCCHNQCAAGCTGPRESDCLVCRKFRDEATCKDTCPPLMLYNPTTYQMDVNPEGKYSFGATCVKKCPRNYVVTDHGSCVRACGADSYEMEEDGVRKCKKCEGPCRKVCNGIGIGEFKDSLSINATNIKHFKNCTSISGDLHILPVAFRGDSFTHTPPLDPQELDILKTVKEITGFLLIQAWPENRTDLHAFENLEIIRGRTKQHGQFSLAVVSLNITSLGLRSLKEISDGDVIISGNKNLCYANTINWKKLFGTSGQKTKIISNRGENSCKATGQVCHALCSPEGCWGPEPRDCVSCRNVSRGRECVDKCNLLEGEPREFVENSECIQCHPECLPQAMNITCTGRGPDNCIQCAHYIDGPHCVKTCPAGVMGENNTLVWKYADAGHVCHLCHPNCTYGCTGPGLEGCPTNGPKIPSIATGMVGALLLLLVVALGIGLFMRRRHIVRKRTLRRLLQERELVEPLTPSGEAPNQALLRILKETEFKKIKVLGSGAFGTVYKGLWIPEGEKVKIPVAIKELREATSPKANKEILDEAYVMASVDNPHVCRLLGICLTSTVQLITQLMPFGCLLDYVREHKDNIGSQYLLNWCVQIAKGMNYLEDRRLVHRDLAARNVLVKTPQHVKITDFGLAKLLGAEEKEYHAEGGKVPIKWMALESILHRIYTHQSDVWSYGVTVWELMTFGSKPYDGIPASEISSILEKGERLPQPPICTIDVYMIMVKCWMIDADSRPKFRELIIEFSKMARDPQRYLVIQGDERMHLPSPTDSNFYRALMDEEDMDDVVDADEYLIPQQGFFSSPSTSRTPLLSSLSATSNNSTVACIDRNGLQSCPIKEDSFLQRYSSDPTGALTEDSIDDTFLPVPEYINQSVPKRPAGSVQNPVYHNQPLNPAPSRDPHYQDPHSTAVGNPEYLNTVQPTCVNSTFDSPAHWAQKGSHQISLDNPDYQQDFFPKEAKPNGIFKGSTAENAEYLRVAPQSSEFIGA
From the text: as §1

[3] = target: 363 human kinases (including Aurora A/B/C) (Homo sapiens, UniProt Q8N4C8); conditions: MINK/MINK1; for remaining activity at 0.1 µM: 100 nM; for remaining activity at 0.1 µM / remaining activity at 0.5 µM: read-out: % Enzyme Activity (relative to DMSO controls)
Sequence of 363 human kinases (including Aurora A/B/C) (Homo sapiens, UniProt Q8N4C8) (Q8N4C8 whole entry): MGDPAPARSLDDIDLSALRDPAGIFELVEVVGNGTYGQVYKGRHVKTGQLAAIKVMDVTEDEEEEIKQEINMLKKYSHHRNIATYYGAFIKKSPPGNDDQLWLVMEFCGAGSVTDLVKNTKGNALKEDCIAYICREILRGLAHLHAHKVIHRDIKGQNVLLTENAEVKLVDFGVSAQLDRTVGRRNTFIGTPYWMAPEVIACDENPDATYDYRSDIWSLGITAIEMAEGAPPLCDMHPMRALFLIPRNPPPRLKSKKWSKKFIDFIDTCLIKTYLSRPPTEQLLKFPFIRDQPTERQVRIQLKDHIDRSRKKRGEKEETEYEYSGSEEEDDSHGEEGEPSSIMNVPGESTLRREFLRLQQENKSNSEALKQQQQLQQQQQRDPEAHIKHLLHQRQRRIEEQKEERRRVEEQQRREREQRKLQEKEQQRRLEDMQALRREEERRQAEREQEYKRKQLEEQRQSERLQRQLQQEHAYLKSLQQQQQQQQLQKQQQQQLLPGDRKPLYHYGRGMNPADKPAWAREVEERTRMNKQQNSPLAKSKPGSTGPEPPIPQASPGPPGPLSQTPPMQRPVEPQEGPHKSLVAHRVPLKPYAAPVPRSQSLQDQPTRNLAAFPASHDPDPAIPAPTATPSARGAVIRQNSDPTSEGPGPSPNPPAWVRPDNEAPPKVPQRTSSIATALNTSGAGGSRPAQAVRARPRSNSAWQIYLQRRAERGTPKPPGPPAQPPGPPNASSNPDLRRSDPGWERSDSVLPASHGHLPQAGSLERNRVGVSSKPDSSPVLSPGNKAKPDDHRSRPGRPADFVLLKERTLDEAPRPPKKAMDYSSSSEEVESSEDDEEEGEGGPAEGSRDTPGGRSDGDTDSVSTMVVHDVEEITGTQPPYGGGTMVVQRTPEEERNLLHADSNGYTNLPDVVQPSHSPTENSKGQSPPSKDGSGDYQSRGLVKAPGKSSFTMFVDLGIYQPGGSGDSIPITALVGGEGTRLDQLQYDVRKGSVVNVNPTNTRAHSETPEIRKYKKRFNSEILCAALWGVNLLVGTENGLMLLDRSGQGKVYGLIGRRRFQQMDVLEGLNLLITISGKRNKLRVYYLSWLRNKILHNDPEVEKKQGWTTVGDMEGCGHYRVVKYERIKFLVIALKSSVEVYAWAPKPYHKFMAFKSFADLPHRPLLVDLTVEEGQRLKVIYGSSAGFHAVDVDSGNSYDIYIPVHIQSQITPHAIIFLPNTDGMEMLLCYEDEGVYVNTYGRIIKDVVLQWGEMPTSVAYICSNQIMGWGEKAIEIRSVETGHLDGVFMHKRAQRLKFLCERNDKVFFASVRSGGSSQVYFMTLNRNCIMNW
From the text: as §1

[4] = target: T1, 363 human kinases (including Aurora A/B/C) (Homo sapiens, UniProt Q96L34); conditions: MARK4; for remaining activity at 0.1 µM: 100 nM; for remaining activity at 0.1 µM / remaining activity at 0.5 µM: read-out: % Enzyme Activity (relative to DMSO controls)
T1 sequence (Q96L34 1-752): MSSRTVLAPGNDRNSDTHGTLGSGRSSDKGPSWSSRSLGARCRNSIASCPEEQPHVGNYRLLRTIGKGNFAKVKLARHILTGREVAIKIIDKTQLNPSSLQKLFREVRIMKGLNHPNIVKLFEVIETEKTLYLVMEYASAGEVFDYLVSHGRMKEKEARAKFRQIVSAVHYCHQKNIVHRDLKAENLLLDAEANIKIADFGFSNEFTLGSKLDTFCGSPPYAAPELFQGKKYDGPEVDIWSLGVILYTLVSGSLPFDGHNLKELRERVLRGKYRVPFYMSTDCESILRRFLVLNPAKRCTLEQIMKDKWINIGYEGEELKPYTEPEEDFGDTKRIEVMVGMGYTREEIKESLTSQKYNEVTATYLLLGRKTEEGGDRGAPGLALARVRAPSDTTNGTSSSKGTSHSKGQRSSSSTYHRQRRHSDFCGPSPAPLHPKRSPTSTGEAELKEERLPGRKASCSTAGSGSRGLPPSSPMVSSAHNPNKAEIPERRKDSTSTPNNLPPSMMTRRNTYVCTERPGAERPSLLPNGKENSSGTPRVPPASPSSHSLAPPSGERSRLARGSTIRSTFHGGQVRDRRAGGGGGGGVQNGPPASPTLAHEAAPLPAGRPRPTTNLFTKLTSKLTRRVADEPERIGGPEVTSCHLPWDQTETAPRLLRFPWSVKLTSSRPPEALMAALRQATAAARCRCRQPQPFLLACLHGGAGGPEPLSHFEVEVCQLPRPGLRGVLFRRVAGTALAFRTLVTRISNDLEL
From the text: as §1

[5] = target: T2, 363 human kinases (including Aurora A/B/C) (Homo sapiens, UniProt Q8NE63); conditions: HIPK4; for remaining activity at 0.1 µM: 100 nM; for remaining activity at 0.1 µM / remaining activity at 0.5 µM: read-out: % Enzyme Activity (relative to DMSO controls)
T2 sequence (Q8NE63 1-616): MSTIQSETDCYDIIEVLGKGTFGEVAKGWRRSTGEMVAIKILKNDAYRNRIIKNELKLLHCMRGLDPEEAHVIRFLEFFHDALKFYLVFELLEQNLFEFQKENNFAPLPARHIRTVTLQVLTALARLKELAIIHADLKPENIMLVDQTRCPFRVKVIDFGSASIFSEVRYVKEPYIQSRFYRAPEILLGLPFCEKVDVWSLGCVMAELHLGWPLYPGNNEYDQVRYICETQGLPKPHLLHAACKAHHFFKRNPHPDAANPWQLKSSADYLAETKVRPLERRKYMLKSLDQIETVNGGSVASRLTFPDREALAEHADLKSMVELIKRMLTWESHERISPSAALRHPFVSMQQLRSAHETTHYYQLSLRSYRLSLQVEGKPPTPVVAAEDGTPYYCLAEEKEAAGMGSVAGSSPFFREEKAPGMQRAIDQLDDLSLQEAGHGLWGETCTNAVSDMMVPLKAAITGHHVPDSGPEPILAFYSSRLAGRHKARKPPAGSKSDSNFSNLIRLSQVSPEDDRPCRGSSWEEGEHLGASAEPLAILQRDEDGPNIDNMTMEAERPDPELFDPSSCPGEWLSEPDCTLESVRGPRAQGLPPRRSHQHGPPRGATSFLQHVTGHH
From the text: as §1

[6] = target: 363 human kinases (including Aurora A/B/C) (Homo sapiens, UniProt Q9P289); conditions: MST4; for remaining activity at 0.1 µM: 100 nM; for remaining activity at 0.1 µM / remaining activity at 0.5 µM: read-out: % Enzyme Activity (relative to DMSO controls)
Sequence of 363 human kinases (including Aurora A/B/C) (Homo sapiens, UniProt Q9P289) (Q9P289 whole entry): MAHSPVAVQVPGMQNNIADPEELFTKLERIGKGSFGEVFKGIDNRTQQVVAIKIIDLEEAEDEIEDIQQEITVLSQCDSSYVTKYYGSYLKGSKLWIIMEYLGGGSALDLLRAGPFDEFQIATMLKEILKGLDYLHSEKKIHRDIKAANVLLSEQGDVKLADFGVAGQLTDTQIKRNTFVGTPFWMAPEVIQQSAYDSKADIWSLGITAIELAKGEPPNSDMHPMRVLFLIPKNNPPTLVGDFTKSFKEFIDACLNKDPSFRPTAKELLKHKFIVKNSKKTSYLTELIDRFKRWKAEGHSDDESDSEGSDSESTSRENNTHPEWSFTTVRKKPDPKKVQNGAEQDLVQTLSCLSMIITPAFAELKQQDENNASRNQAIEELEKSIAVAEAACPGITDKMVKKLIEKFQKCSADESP
From the text: as §1

SMILES | remaining activity at 0.1 µM [1] [%] | remaining activity at 0.1 µM [2] [%] | remaining activity at 0.1 µM [3] [%] | remaining activity at 0.1 µM [4] [%] | remaining activity at 0.1 µM [5] [%] | remaining activity at 0.1 µM [6] [%] | remaining activity at 0.5 µM ([1]; 500 nM) [%] | remaining activity at 0.5 µM ([2]; 500 nM) [%] | remaining activity at 0.5 µM ([3]; 500 nM) [%] | remaining activity at 0.5 µM ([4]; 500 nM) [%] | remaining activity at 0.5 µM ([5]; 500 nM) [%] | remaining activity at 0.5 µM ([6]; 500 nM) [%] | % Enzyme Activity (relative to DMSO controls) ([1]; 500 nM) [%] | % Enzyme Activity (relative to DMSO controls) ([2]; 500 nM) [%] | % Enzyme Activity (relative to DMSO controls) ([3]; 500 nM) [%] | % Enzyme Activity (relative to DMSO controls) ([4]; 500 nM) [%] | % Enzyme Activity (relative to DMSO controls) ([5]; 500 nM) [%] | % Enzyme Activity (relative to DMSO controls) ([6]; 500 nM) [%]
CCn1cc(-c2ccnc3[nH]c(-c4cccc(CN(C)C)c4)cc23)c(-c2ccc(NC(=O)N(C)C)cc2)n1 [GSK1070916] | 100 | 54.6 | 78.3 | 111 | 86.9 | 76.4 |  |  |  |  |  |  |  |  |  |  |  | 
O=C(O)[C@]1(Cc2cccc(Nc3nccs3)n2)CC[C@@H](Oc2cccc(Cl)c2F)CC1 [MK-5108] | 105 | 67.3 | 80 | 106 | 24.4 | 84 | 97.4 | 33.9 | 53.4 | 101 | 5.4 | 81.5 |  |  |  |  |  | 
O=C(c1cccc(Cl)c1F)N1CCN(Cc2cccc(Nc3nccs3)n2)CC1 [MK-8745] |  |  |  |  |  |  | 99.8 | 99.1 | 86.8 | 105 | 78.7 | 87.2 | 98.73 | 97.09 | 82.81 | 102.33 | 76.34 | 78.55
